Reference: patent US20240287076A1, “COMPOUNDS FOR TARGETING DEGRADATION OF BRUTON'S TYROSINE KINASE” (BIOGEN MA INC., priority 2021, published 2024)

Molecular target: T1, BTK (Homo sapiens, UniProt Q06187)
T1 construct: The GM01501.3 cell line endogenously expresses BTK with a HiBiT fusion tag via CRISPR knock-in at its C-terminal region; endogenous in cells; host or cells: GM01501.3 (GM01501 cells engineered by CRISPR knock-in of HiBiT at the BTK locus)
Assay: BTK degradation assay using the HiBiT Method (Nano-Glo HiBiT Lytic Assay, GM01501.3 cells)
Format: cell-based
Settings: HiBiT Degradation on GM01501.3 BTK @ 6 hours
In short: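 Degradation read-out: HiBiT luminescence after lytic reagent addition, giving DC50. Compounds dosed from 10 μM in 11 half-log steps (duplicate) onto GM01501.3 cells, whose endogenous BTK carries a C-terminal HiBiT knock-in tag; 6 h exposure, 37 °C, 5% CO2.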

T1 sequence (Q06187 whole entry, the tested form may be a part): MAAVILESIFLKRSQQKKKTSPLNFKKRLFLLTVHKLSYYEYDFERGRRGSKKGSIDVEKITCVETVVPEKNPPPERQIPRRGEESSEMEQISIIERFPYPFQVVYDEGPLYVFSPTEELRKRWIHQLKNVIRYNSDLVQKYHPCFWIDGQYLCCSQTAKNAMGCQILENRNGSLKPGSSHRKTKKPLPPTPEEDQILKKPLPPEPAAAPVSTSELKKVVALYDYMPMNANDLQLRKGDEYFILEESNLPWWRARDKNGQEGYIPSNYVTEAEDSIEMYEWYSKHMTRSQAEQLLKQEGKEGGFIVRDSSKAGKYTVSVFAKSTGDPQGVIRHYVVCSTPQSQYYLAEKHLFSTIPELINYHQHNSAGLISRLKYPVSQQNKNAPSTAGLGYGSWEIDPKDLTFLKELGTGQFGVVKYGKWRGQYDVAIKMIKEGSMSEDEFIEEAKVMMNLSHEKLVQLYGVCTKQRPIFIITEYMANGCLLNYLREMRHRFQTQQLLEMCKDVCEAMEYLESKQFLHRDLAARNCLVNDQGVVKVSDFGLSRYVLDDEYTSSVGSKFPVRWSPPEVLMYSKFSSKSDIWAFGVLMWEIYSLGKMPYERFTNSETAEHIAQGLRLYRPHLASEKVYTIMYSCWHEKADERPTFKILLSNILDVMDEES

Row | DC50 | SMILES
1 | < 100 nM | CC(C)(C)c1nc(C(=O)NCc2ccc(-c3ncnn4cc(CCCCN5CCC(c6ccc(C7(C)CCC(=O)NC7=O)cc6)CC5)cc34)cc2F)no1 (stereo not drawn) [Example 140, 5-tert-butyl-N-[[2-fluoro-4-[6-[4-[4-[4-(3-methyl-2,6-dioxo-3-piperidyl)phenyl]-1-piperidyl]butyl]pyrrolo[2,1-f][1,2,4]triazin-4-yl]phenyl]methyl]-1,2,4-oxadiazole-3-carboxamide]
2 | < 100 nM | Cc1cc(-c2ncnn3cc(CCN4CCC(c5ccn6c(N7CCC(=O)NC7=O)cnc6c5)CC4)cc23)ccc1CNC(=O)c1noc(C(C)(C)C)n1 [Example 269, 5-(tert-butyl)-N-(4-(6-(2-(4-(3-(2,4-dioxotetrahydropyrimidin-1(2H)-yl)imidazo[1,2-a]pyridin-7-yl)piperidin-1-yl)ethyl)pyrrolo[2,1-f][1,2,4]triazin-4-yl)-2-methylbenzyl)-1,2,4-oxadiazole-3-carboxamide]
3 | < 100 nM | Cc1cc(-c2ccnc3cn(CCCCN4CCC(c5ccc(NC6CCC(=O)NC6=O)cc5)CC4)nc23)ccc1CNC(=O)c1noc(C(C)(C)C)n1 (stereo not drawn) [Example 224, 5-tert-butyl-N-[[4-[2-[4-[4-[4-[(2,6-dioxo-3-piperidyl)amino]phenyl]-1-piperidyl]butyl]pyrazolo[4,3-b]pyridin-7-yl]-2-methyl-phenyl]methyl]-1,2,4-oxadiazole-3-carboxamide]
4 | < 100 nM | Cc1cc(-c2ncnn3cc(-c4ccc(CN5CCC(Oc6ccc(NC7CCC(=O)NC7=O)cc6)CC5)cc4)cc23)ccc1CNC(=O)c1noc(C(C)(C)C)n1 (stereo not drawn) [Example 201, 5-(tert-butyl)-N-(4-(6-(4-((4-(4-((2,6-dioxopiperidin-3-yl)amino)phenoxy)piperidin-1-yl)methyl)phenyl)pyrrolo[2,1-f][1,2,4]triazin-4-yl)-2-methylbenzyl)-1,2,4-oxadiazole-3-carboxamide]
5 | < 100 nM | Cn1nc(N2CCC(=O)NC2=O)c2ccc(C3CCN(Cc4ccc(-c5cc6c(-c7ccc(CNC(=O)c8noc(C(C)(C)C)n8)c(F)c7)ncnn6c5)cn4)CC3)cc21 [Example 244, 5-(tert-butyl)-N-(4-(6-(6-((4-(3-(2,4-dioxotetrahydropyrimidin-1(2H)-yl)-1-methyl-1H-indazol-6-yl)piperidin-1-yl)methyl)pyridin-3-yl)pyrrolo[2,1-f][1,2,4]triazin-4-yl)-2-fluorobenzyl)-1,2,4-oxadiazole-3-carboxamide]
6 | 100 to 500 nM | Cc1cc(-c2ncnn3cc(N4CCN(C(=O)c5ccc(CNC(=O)c6ccc(OC7CCC(=O)NC7=O)cc6)nc5)CC4)cc23)ccc1CNC(=O)c1noc(C(C)(C)C)n1 (stereo not drawn) [Example 179, 5-(tert-butyl)-N-(4-(6-(4-(6-((4-((2,6-dioxopiperidin-3-yl)oxy)benzamido)methyl)nicotinoyl)piperazin-1-yl)pyrrolo[2,1-f][1,2,4]triazin-4-y1)-2-methylbenzyl)-1,2,4-oxadiazole-3-carboxamide]
7 | < 100 nM | Cc1cc(-c2ncnn3cc(-c4ccc(CN5CCC(c6ccc(NC7CCC(=O)NC7=O)cc6)CC5)cn4)cc23)ccc1CNC(=O)c1noc(C(C)(C)C)n1 (stereo not drawn) [Example 241, 5-(tert-butyl)-N-(4-(6-(5-((4-(4-((2,6-dioxopiperidin-3-yl)amino)phenyl)piperidin-1-yl)methyl)pyridin-2-yl)pyrrolo[2,1-f][1,2,4]triazin-4-yl)-2-methylbenzyl)-1,2,4-oxadiazole-3-carboxamide]
8 | < 100 nM | Cc1cc(-c2ncnn3cc(OCCCN4CCC[C@@H](c5ccc6c(N7CCC(=O)NC7=O)nn(C)c6c5)C4)cc23)ccc1CNC(=O)c1noc(C(C)(C)C)n1 (single isomer, unassigned) [Example 292]
9 | < 100 nM | Cc1cc(-c2ncnn3cc(-c4cccc(CN5CCC(c6ccc7c(N8CCC(=O)NC8=O)nn(C)c7c6)CC5)n4)cc23)ccc1CNC(=O)c1noc(C(C)(C)C)n1 [Example 248, 5-(tert-butyl)-N-(4-(6-(6-((4-(3-(2,4-dioxotetrahydropyrimidin-1(2H)-yl)-1-methyl-1H-indazol-6-yl)piperidin-1-yl)methyl)pyridin-2-yl)pyrrolo[2,1-f][1,2,4]triazin-4-yl)-2-methylbenzyl)-1,2,4-oxadiazole-3-carboxamide]
10 | < 100 nM | Cc1cc(-c2ncnn3cc(CCN4CCC(c5ccc6c(C7CCC(=O)NC7=O)nn(C)c6c5)CC4)cc23)ccc1CNC(=O)c1noc(C(C)(C)C)n1 (stereo not drawn) [Example 255, 5-(tert-butyl)-N-(4-(6-(2-(4-(3-(2,6-dioxopiperidin-3-yl)-1-methyl-1H-indazol-6-yl)piperidin-1-yl)ethyl)pyrrolo[2,1-f][1,2,4]triazin-4-yl)-2-methylbenzyl)-1,2,4-oxadiazole-3-carboxamide]

The remaining lines, values behind:

Row | SMILES | DC50
11 | Cc1cc(-c2ncnn3cc(-c4ccc(CN5CCC(c6ccc(NC7CCC(=O)NC7=O)cc6)CC5)cc4)cc23)ccc1CNC(=O)c1nc(C(C)(C)C)co1 (stereo not drawn) [Example 80, 4-tert-butyl-N-[[4-[6-[4-[[4-[4-[(2,6-dioxo-3-piperidyl)amino]phenyl]-1-piperidyl]methyl]phenyl]pyrrolo[2,1-f][1,2,4]triazin-4-yl]-2-methyl-phenyl]methyl]oxazole-2-carboxamide] | < 100 nM
12 | Cc1cc(-c2ncnn3cc(-c4ccc(CN5CCC(c6ccc(NC7CCC(=O)NC7=O)cc6)CC5)cc4)cc23)ccc1CNC(=O)c1ccc(C(F)F)cn1 (stereo not drawn) [Example 96, 5-(difluoromethyl)-N-[[4-[6-[4-[[4-[4-[(2,6-dioxo-3-piperidyl)amino]phenyl]-1-piperidyl]methyl]phenyl]pyrrolo[2,1-f][1,2,4]triazin-4-yl]-2-methyl-phenyl]methyl]pyridine-2-carboxamide] | < 100 nM
13 | Cc1cc(-c2ncnn3cc(-c4ccc(CN5CCC(c6ccc(NC7CCC(=O)NC7=O)cc6)CC5)cc4)cc23)ccc1CNC(=O)c1coc(C(C)(C)C)n1 (stereo not drawn) [Example 78, 2-tert-butyl-N-[[4-[6-[4-[[4-[4-[(2,6-dioxo-3-piperidyl)amino]phenyl]-1-piperidyl]methyl]phenyl]pyrrolo[2,1-f][1,2,4]triazin-4-yl]-2-methyl-phenyl]methyl]oxazole-4-carboxamide] | < 100 nM
14 | Cc1cc(-c2ncnn3cc(-c4ccc(OCCN5CCC(c6ccc(C7CCC(=O)NC7=O)cc6)CC5)cc4)cc23)ccc1CNC(=O)c1noc(C(C)(C)C)n1 (stereo not drawn) [Example 104, 5-tert-butyl-N-[[4-[6-[4-[2-[4-[4-(2,6-dioxo-3-piperidyl)phenyl]-1-piperidyl]ethoxy]phenyl]pyrrolo[2,1-f][1,2,4]triazin-4-yl]-2-methyl-phenyl]methyl]-1,2,4-oxadiazole-3-carboxamide] | < 100 nM
15 | Cc1cc(-c2ncnn3cc(CCN4CCC(c5ccc(C6CCC(=O)NC6=O)cc5)C(F)(F)C4)cc23)ccc1CNC(=O)c1noc(C(C)(C)C)n1 (stereo not drawn) [Example 119, 5-tert-butyl-N-[[4-[6-[2-[4-[4-(2,6-dioxo-3-piperidyl)phenyl]-3,3-difluoro-1-piperidyl]ethyl]pyrrolo[2,1-f][1,2,4]triazin-4-yl]-2-methyl-phenyl]methyl]-1,2,4-oxadiazole-3-carboxamide] | < 100 nM
16 | Cc1cc(-c2ncnn3cc(CCN4CCC(c5ccc(OC6CCC(=O)NC6=O)cc5)CC4)cc23)ccc1CNC(=O)c1noc(C(C)(C)C)n1 (stereo not drawn) [Example 118, 5-tert-butyl-N-[[4-[6-[2-[4-[4-[(2,6-dioxo-3-piperidyl)oxy]phenyl]-1-piperidyl]ethyl]pyrrolo[2,1-f][1,2,4]triazin-4-yl]-2-methyl-phenyl]methyl]-1,2,4-oxadiazole-3-carboxamide] | < 100 nM
17 | COc1cc(CN2CCC(c3ccc(C4CCC(=O)NC4=O)cc3)CC2)ccc1-c1cc2c(-c3ccc(CNC(=O)c4noc(C(C)(C)C)n4)c(C)c3)ncnn2c1 (stereo not drawn) [Example 22, 5-tert-butyl-N-[[4-[6-[4-[[4-[4-(2,6-dioxo-3-piperidyl)phenyl]-1-piperidyl]methyl]-2-methoxy-phenyl]pyrrolo[2,1-f][1,2,4]triazin-4-yl]-2-methyl-phenyl]methyl]-1,2,4-oxadiazole-3-carboxamide] | < 100 nM
18 | CC(C)(C)c1nc(C(=O)NCc2ccc(-c3ncnn4cc(-c5ccc(CN6CCC(c7ccc(C8CCC(=O)NC8=O)cc7)CC6)cc5)cc34)cc2Cl)no1 (stereo not drawn) [Example 46, 5-tert-butyl-N-[[2-chloro-4-[6-[4-[[4-[4-(2,6-dioxo-3-piperidyl)phenyl]-1-piperidyl]methyl]phenyl]pyrrolo[2,1-f][1,2,4]triazin-4-yl]phenyl]methyl]-1,2,4-oxadiazole-3-carboxamide] | < 100 nM
19 | Cc1cc(-c2ncnn3cc(-c4ccc5c(c4)CN(CCc4ccc(NC6CCC(=O)NC6=O)cc4)CC5)cc23)ccc1CNC(=O)c1noc(C(C)(C)C)n1 (stereo not drawn) [Example 60, 5-tert-butyl-N-[[4-[6-[2-[2-[4-[(2,6-dioxo-3-piperidyl)amino]phenyl]ethyl]-3,4-dihydro-1H-isoquinolin-7-yl]pyrrolo[2,1-f] [1,2,4]triazin-4-yl]-2-imethyl-phenyl]methyl]-1,2,4-oxadiazole-3-carboxamide] | < 100 nM
20 | Cc1cc(-c2ncnn3cc(-c4ccc5c(c4)CN(CCCc4ccc(NC6CCC(=O)NC6=O)cc4)CC5)cc23)ccc1CNC(=O)c1noc(C(C)(C)C)n1 (stereo not drawn) [Example 59, 5-tert-butyl-N-[[4-[6-[2-[3-[4-[(2,6-dioxo-3-piperidyl)amino]phenyl]propyl]-3,4-dihydro-1H-isoquinolin-7-yl]pyrrolo[2,1-f][1,2,4]triazin-4-yl]-2-methyl-phenyl]methyl]-1,2,4-oxadiazole-3-carboxamide] | < 100 nM
21 | Cc1cc(-c2ncnn3cc(CCCN4CCC(c5ccc(NC6CCC(=O)NC6=O)cc5)CC4)cc23)ccc1CNC(=O)c1noc(C(C)(C)C)n1 (stereo not drawn) [Example 127, 5-tert-butyl-N-[[4-[6-[3-[4-[4-[(2,6-dioxo-3-piperidyl)amino]phenyl]-1-piperidyl]propyl]pyrrolo[2,1-f][1,2,4]triazin-4-yl]-2-methyl-phenyl]methyl]-1,2,4-oxadiazole-3-carboxamide] | < 100 nM
